Experimental data reported in patent publication US20250115598A1 (Anaxis Pharma Pty Ltd, priority 2021, published 2025).

Assays:
[1] = system: Immortalised Mouse Dermal Fibroblasts (MDFs); test: Cellular assay: inhibition of TSI induced necroptosis, CellTitre-Glo viability; settings: Mus musculus, Fibroblast; MDF, 3 hours TSI cocktail, Table 27; read-out: Inhibition of TSI-induced necroptosis (IC50 cell-based assay) in MDF
Summary of the method: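 Immortalised mouse dermal fibroblasts (2200 cells/well) pretreated 30 min with compound, 10-point 1:3 series from 36 μM, 0.3% DMSO. Then 3 h at 37° C. with TNF (100 ng/ml), Smac mimetic (500 nM) and IDN-6556 (10 μM). CellTiter-Glo luminescence normalised to DMSO (100%) and DMSO+TSI (0%); IC50 from 4-parameter logistic fit.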

human MLKL (full length) = human MLKL (full length) (Homo sapiens (Human), UniProt Q8NB16); test: KINOMEscan binding assay, human MLKL (full length); settings: hMLKL, Table 25; read-out: MLKL (KD)
Summary of the method: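 Compound dilutions (11 points, 3-fold, mostly from 30,000 nM, 1% DMSO final) competed with immobilized ligand for DNA- or phage-tagged protein, and bead-bound protein was measured by qPCR. Kd values came from Hill-equation fits with slope −1 (Levenberg-Marquardt).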

endogenous MLKL in MDF = endogenous MLKL in MDF (Mus musculus (Mouse), UniProt Q9D2Y4); test: Degradation assay: endogenous MLKL in MDF (western blot); settings: MDF cells, 24 h incubation with compound, MLKL adjusted for loading with GAPDH, normalized to DMSO only control, read-out: Degradation of endogenous MLKL in MDF (DC50 cell-based assay)
Protocol: Degradation Assay: Screening Compounds Procedure to Evaluate the Activity of Compounds in Degrading Endogenous MLKL in Human and Mouse Cell
The mouse dermal fibroblast (MDF) cell line was seeded the day before the experiment in a 24-well plate at a cell density of […] per well in a volume of 0.5 mL per well and left to attach overnight. The human monocyte cell line (U937) was seeded on the day of the experiment in a 24-well plate at a cell density of […] per well in a volume of 0.5 mL per well.
The compound was diluted in DMSO with a starting concentration of 10 mM and titrated stepwise with a dilution of 1:5. 0.5 μL of the compound dilution was added to the appropriate well to achieve a final concentration of 10; 2; 0.4; 0.08 and 0.016 μM. A DMSO only well was included as control.
The cells were incubated for 24 h in the presence of the compound at 37° C. and 10% CO2.
After the 24 h incubation period, the medium was removed and cells washed with 0.5 mL PBS. The cells were then lysed directly in 60 μL of 1×SDS gel loading buffer.
The cell lysate was heat-denatured at […] for 10 min. 10 μL of lysate per well were run on 18-well 4-15% Criterion TGX stain free gels (BIO-RAD). The proteins were then transferred onto nitrocellulose membrane with a wet transfer protocol in the Criterion Blotter (BIO-RAD).
Membranes were blocked with 5% skim milk in TBST. Primary antibody against MLKL (clone 3H1, MABC604 Merck) was used at 1:2000 dilution in TBST with 1% BSA and left shaking over night at 4° C. After washes with TBST, the membranes were incubated with goat anti-rat IgG HRP-conjugated antibody (Southern Biotech) in 1% skim milk TBST at 1:10000 dilution for 1 h at room temperature. After TBST washes the bands were imaged on the ChemiDoc MP Imaging System (BIO-RAD) with Immobilion Western Chemiluminescent HRP Substrate Forte (Millipore). The loading control GAPDH was probed for with rabbit anti-GAPDH (CST 14C10) at 1:2000 dilution in 1% BSA TBST over night at 4° C. TBST washes were followed by incubation with goat anti-rabbit IgG HRP-conjugated antibody (Southern Biotech) in 1% skim milk TBST at 1:10000 dilution for 1 h at room temperature followed by TBST washes. The signal was detected as described above.
The band intensity was measured in the ImageLab Software (BIO-RAD) and the MLKL values adjusted for loading with GAPDH. The percentage of degradation was calculated by normalizing the compound treated values to the DMSO only control.

human MLKL (full length), sequence (Q8NB16 whole entry): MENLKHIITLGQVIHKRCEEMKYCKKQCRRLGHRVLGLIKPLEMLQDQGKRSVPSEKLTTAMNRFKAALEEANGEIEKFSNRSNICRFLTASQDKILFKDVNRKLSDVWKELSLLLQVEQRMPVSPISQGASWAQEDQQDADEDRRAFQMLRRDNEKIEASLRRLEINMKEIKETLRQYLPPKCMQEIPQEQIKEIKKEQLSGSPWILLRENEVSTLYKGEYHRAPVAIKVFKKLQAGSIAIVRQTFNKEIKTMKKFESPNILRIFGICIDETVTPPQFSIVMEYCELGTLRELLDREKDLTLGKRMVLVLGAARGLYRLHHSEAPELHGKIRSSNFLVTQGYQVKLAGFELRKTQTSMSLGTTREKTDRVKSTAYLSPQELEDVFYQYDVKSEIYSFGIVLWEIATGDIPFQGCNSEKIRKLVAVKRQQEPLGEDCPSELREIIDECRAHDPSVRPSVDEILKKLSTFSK
endogenous MLKL in MDF, sequence (Q9D2Y4 whole entry): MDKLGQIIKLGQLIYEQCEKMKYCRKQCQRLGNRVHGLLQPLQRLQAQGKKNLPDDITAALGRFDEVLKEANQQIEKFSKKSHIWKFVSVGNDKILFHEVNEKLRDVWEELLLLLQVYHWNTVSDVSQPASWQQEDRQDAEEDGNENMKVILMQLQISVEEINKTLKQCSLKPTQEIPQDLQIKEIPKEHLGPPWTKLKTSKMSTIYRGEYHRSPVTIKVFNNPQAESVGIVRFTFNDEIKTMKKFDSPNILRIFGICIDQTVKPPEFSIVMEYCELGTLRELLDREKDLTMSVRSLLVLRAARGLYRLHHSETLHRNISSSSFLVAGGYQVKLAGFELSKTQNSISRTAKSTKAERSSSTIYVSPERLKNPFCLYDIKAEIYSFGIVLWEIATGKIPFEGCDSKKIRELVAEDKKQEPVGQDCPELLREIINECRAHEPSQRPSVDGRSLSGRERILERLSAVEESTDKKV

Row | Kd (human MLKL (full length)) [nM] | DC50 (endogenous MLKL in MDF) [nM] | Compound | IC50 [1] [nM]
1 | < 10 | < 1000 | C[C@H](Oc1cc(-c2nn(C)c3c(-c4cnn(C5CCN(C(=O)C6CC(N(C)c7cccc8c7C(=O)N(C7CCC(=O)NC7=O)C8=O)C6)CC5)c4)cnc(N)c23)ccc1NS(=O)(=O)C(F)F)c1ccc(F)cc1 (stereo partly drawn) [Compound 1119, N-{4-[4-amino-1-methyl-7-(1-{1-[(trans)-3-{[2-(2,6-dioxopiperidin-3-yl)-1,3-dioxo-2,3-dihydro-1H-isoindol-4-yl](methyl)amino}cyclobutanecarbonyl]piperidin-4-yl}-1H-pyrazol-4-yl)-1H-pyrazolo[4,3-c]pyridin-3-yl]-2-[(1S)-1-(4-fluorophenyl)ethoxy]phenyl}-1,1-difluoromethanesulfonamide] | < 1000
2 | 10 to 1000 | < 1000 | C[C@H](Oc1cc(-c2nn(C)c3c(-c4cnn(C5CCN(C(=O)CC6CCN(c7cccc8c7C(=O)N(C7CCC(=O)NC7=O)C8=O)C6)CC5)c4)cnc(N)c23)ccc1NS(=O)(=O)C(F)F)c1ccc(F)cc1 (stereo partly drawn) [Compound 1053, N-[4-(4-amino-7-{1-[1-(2-{1-[2-(2,6-dioxopiperidin-3-yl)-1,3-dioxo-2,3-dihydro-1H-isoindol-4-yl]pyrrolidin-3-yl}acetyl)piperidin-4-yl]-1H-pyrazol-4-yl}-1-methyl-1H-pyrazolo [4,3-c]pyridin-3-yl)-2-[(1S)-1-(4-fluorophenyl)ethoxy]phenyl]-1,1-difluoromethanesulfonamide] | < 1000
3 | 10 to 1000 | < 1000 | Cc1ncsc1-c1ccc(CNC(=O)[C@@H]2C[C@@H](O)CN2C(=O)[C@@H](NC(=O)COCCOc2ccc(-c3cnc(N)c4c(-c5ccc(NS(=O)(=O)C(F)F)c(O[C@@H](C)c6ccc(F)cc6)c5)nn(C)c34)cc2)C(C)(C)C)cc1 [Compound 1049, (2S,4R)-1-[(2S)-2-{2-[2-(4-{4-amino-3-[4-(difluoromethanesulfonamido)-3-[(1S)-1-(4-fluorophenyl)ethoxy]phenyl]-1-methyl-1H-pyrazolo[4,3-c]pyridin-7-yl}phenoxy)ethoxy]acetamido}-3,3-dimethylbutanoyl]-4-hydroxy-N-{[4-(4-methyl-1,3-thiazol-5-yl)phenyl]methyl}pyrrolidine-2-carboxamide] | 1000 to 10000
4 | < 10 | < 1000 | C[C@H](Oc1cc(-c2nn(C)c3c(-c4cnn(C5CCN(C(=O)[C@H]6C[C@H](Nc7cccc8c7C(=O)N(C7CCC(=O)NC7=O)C8=O)C6)C(C)(C)C5)c4)cnc(N)c23)ccc1NS(=O)(=O)C(F)F)c1ccc(F)cc1 (stereo partly drawn) [Compound 1116, N-{4-[4-amino-7-(1-{2,2-dimethyl-1-[(trans)-3-{[2-(2,6-dioxopiperidin-3-yl)-1,3-dioxo-2,3-dihydro-1H-isoindol-4-yl]amino}cyclobutanecarbonyl]piperidin-4-yl}-1H-pyrazol-4-yl)-1-methyl-1H-pyrazolo[4,3-c]pyridin-3-yl]-2-[(1S)-1-(4-fluorophenyl)ethoxy]phenyl}-1,1-difluoromethanesulfonamide] | 1000 to 10000
5 | 10 to 1000 | < 1000 | C[C@H](Oc1cc(-c2nn(C)c3c(-c4cnn(C5CCN(C(=O)C6CN(c7cccc8c7C(=O)N(C7CCC(=O)NC7=O)C8=O)CCO6)CC5)c4)cnc(N)c23)ccc1NS(=O)(=O)C(F)F)c1ccc(F)cc1 (stereo partly drawn) [Compound 1070, N-(4-{4-amino-7-[1-(1-{4-[2-(2,6-dioxopiperidin-3-yl)-1,3-dioxo-2,3-dihydro-1H-isoindol-4-yl]morpholine-2-carbonyl}piperidin-4-yl)-1H-pyrazol-4-yl]-1-methyl-1H-pyrazolo[4,3-c]pyridin-3-yl}-2-[(1S)-1-(4-fluorophenyl)ethoxy]phenyl)-1,1-difluoromethanesulfonamide] | < 1000

The next lines start with the compound.

Row | Compound | Kd (human MLKL (full length)) [nM] | DC50 (endogenous MLKL in MDF) [nM] | IC50 [1] [nM]
6 | C[C@H](Oc1cc(-c2nn(C)c3c(-c4cnn(C5CCN(CCN6CCCC(COc7cccc8c7C(=O)N(C7CCC(=O)NC7=O)C8=O)C6)CC5)c4)cnc(N)c23)ccc1NS(=O)(=O)C(F)F)c1ccc(F)cc1 (stereo partly drawn) [Compound 1132, N-(4-{4-amino-7-[1-(1-{2-[3-({[2-(2,6-dioxopiperidin-3-yl)-1,3-dioxo-2,3-dihydro-1H-isoindol-4-yl]oxy}methyl)piperidin-1-yl]ethyl}piperidin-4-yl)-1H-pyrazol-4-yl]-1-methyl-1H-pyrazolo[4,3-c]pyridin-3-yl}-2-[(1S)-1-(4-fluorophenyl)ethoxy]phenyl)-1,1-difluoromethanesulfonamide] | 10 to 1000 | < 1000 | < 1000
7 | C[C@H](Oc1cc(-c2nn(C)c3c(-c4cnn(C5CCN(C(=O)[C@H]6C[C@H](Nc7cccc8c7C(=O)N(C7CCC(=O)NC7=O)C8=O)C6)C6(CC6)C5)c4)cnc(N)c23)ccc1NS(=O)(=O)C(F)F)c1ccc(F)cc1 (stereo partly drawn) [Compound 1107, N-{4-[4-amino-1-methyl-7-(1-{4-[(1r,3r)-3-{[2-(2,6-dioxopiperidin-3-yl)-1,3-dioxo-2,3-dihydro-1H-isoindol-4-yl]amino}cyclobutanecarbonyl]-4-azaspiro[2.5]octan-7-yl}-1H-pyrazol-4-yl)-1H-pyrazolo[4,3-c]pyridin-3-yl]-2-[(1S)-1-(4-fluorophenyl)ethoxy]phenyl}-1,1-difluoromethanesulfonamide] | 10 to 1000 | < 1000 | < 1000
8 | C[C@H](Oc1cc(-c2nn(C)c3c(-c4cnn(C5CCN(C(=O)OCC6CCN(c7cccc8c7C(=O)N(C7CCC(=O)NC7=O)C8=O)CC6)CC5)c4)cnc(N)c23)ccc1NS(=O)(=O)C(F)F)c1ccc(F)cc1 (stereo partly drawn) [Compound 1105, {1-[2-(2,6-dioxopiperidin-3-yl)-1,3-dioxo-2,3-dihydro-1H-isoindol-4-yl]piperidin-4-yl}methyl4-(4-{4-amino-3-[4-(difluoromethanesulfonamido)-3-[(1 S)-1-(4-fluorophenyl)ethoxy]phenyl]-1-methyl-1H-pyrazolo[4,3-c]pyridin-7-yl}-1H-pyrazol-1-yl)piperidine-1-carboxylate] | 10 to 1000 | < 1000 | < 1000
9 | CN[C@@H](C)C(=O)N[C@H](C(=O)N1CC(NC(=O)CCCCCCCCn2cc(-c3cnc(N)c4c(-c5ccc(NS(=O)(=O)C(F)F)c(O[C@@H](C)c6ccc(F)cc6)c5)nn(C)c34)cn2)C[C@H]1C(=O)Nc1c(F)cccc1F)C(C)(C)C (stereo partly drawn) [Compound 1090, (2S)-4-[9-(4-{4-amino-3-[4-(difluoromethanesulfonamido)-3-[(1S)-1-(4-fluorophenyl)ethoxy]phenyl]-1-methyl-1H-pyrazolo[4,3-c]pyridin-7-yl}-1H-pyrazol-1-yl)nonanamido]-N-(2,6-difluorophenyl)-1-[(2S)-3,3-dimethyl-2-[(2S)-2-(methylamino)propanamido]butanoyl]pyrrolidine-2-carboxamide] | < 10 | 1000 to 10000 | 1000 to 10000
10 | C[C@H](Oc1cc(-c2nn(C)c3c(-c4cnn(C5CCN(C(=O)c6ccc7c(c6)CN(C6CCC(=O)NC6=O)C7=O)CC5)c4)cnc(N)c23)ccc1NS(=O)(=O)C(F)F)c1ccc(F)cc1 (stereo partly drawn) [Compound 1096, N-{4-[4-amino-7-(1-{1-[2-(2,6-dioxopiperidin-3-yl)-1-oxo-2,3-dihydro-1H-isoindole-5-carbonyl]piperidin-4-yl}-1H-pyrazol-4-yl)-1-methyl-1H-pyrazolo[4,3-c]pyridin-3-yl]-2-[(1S)-1-(4-fluorophenyl)ethoxy]phenyl}-1,1-difluoromethanesulfonamide] | < 10 | < 1000 | 1000 to 10000
